SMILES strings stand for the structures.

One assay has as its target T1, aldosterone receptor MR (Rattus norvegicus, UniProt P22199).
T1 construct: the resultant supernatant was being a soluble fraction of the kidney; from tissue; host or cells: kidney of adrenalectomized rat, 105,000 G supernatant (soluble fraction)
T1 sequence (P22199 1-981): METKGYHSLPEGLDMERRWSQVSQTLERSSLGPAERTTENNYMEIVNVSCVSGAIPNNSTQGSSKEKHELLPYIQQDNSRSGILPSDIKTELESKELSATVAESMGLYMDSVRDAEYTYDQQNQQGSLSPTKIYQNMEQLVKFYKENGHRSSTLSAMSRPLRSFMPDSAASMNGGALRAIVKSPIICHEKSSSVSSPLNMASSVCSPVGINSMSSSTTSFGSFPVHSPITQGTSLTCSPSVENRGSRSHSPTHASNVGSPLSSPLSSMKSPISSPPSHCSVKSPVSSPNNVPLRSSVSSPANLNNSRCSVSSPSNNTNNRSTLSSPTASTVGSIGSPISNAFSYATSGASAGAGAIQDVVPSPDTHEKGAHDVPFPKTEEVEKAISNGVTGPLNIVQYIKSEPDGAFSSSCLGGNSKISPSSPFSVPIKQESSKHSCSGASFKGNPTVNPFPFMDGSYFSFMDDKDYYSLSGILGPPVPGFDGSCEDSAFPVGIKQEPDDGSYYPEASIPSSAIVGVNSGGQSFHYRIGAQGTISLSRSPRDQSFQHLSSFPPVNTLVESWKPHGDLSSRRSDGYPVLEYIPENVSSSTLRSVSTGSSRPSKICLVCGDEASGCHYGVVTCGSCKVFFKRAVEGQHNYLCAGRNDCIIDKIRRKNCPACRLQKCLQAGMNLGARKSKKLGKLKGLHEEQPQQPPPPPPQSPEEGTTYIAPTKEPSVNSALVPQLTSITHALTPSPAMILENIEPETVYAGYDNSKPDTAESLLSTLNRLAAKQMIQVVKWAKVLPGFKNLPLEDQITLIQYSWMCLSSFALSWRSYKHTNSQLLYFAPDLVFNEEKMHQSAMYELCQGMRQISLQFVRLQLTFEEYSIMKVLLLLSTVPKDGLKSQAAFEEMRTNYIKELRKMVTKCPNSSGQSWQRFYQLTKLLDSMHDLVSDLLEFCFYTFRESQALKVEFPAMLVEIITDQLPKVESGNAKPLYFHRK
The assay can be described thus: Aldosterone receptor binding assay ([3H]aldosterone, soluble fraction of rat kidney). As to conditions: [3H]aldosterone 2 nM, 2 μM RU-486, 4° C. about 18 hours. As for the experimental part:
Flank incision (both sides) was subjected to a rat to adrenalectomize. After suturing the rat's incised parts, the rat was again returned to a breeding cage and bred for a duration of 3 to 5 days to collect a kidney from the rat; the collected kidney was homogenized with 0.1 M Tris-HCl, 0.25M sucrose, 0.1M Na2MoO4, 2 mM DTT buffer solution (pH 7.4), the resultant solution was subjected to centrifugal separation at 105,000 G for 30 minutes, and the resultant supernatant was being a soluble fraction of the kidney.
Thereafter, the reactant solution was added with 50 μL of 5% dextran coated charcoal and mixed, and then centrifugated at 3,000 G for 5 minutes. Subsequently, 100 μL of the supernatant was collected and mixed with 3.5 mL of liquid scintillator ACS-II (Amersham) to measure a radioactivity with a liquid scintillation counter (manufactured by Packard, Tri Carb 2700TR). A non-specific binding was determined by adding 2 μM of aldosterone to the reactant solution.
Binding inhibiting rate (%)=10−[(B−N)/(B0−N)]×100
B: Binding amount of the marker ligand in the co-presence of the tested substance and marker ligand,
B0: Binding amount of the marker ligand in the absence of the tested substance, and
N: Binding amount of the marker ligand in the presence of excess aldosterone (2 μM).
Turning to `CC1(C)OC(=S)Nc2ccc(NS(=O)(=O)c3cccs3)cc21` [Example 24, N-(4,4-Dimethyl-2-thioxo-1,4-dihydro-2H-3,1-benzoxazin-6-yl)thiophene-2-sulfonamide], the 50% inhibitory concentration (IC50) stood at 13 nM.
In turn, `CC1=CC(C)(C)Nc2ccc(NS(=O)(=O)c3ccc(C(F)(F)F)cc3)cc21` [Example 70, 4-(Trifluoromethyl)-N-(2,2,4-trimethyl-1,2-dihydroquinolin-6-yl)benzenesulfonamide] registered an IC50 of 300 nM.
Same read-out and setting: with `CC(=O)N(c1ccc2c(c1)C(C)=CC(C)(C)N2)S(=O)(=O)c1ccc(Cl)s1` [Example 89, N-[(5-Chloro-2-thienyl)sulfonyl]-N-(2,2,4-trimethyl-1,2-dihydroquinolin-6-yl)acetamide] the figure was 300 nM; with `CC1=CC(C)(C)Nc2ccc(OS(=O)(=O)c3ccc(C)cc3)cc21` [Example 51, 2,2,4-Trimethyl-1,2-dihydroquinolin-6-yl 4-methylbenzenesulfonate], 300 nM.
Still for that read-out and setting: with `CC1(C)OC(=S)Nc2ccc(NS(=O)(=O)c3ccccc3F)cc21` [Example 29, N-(4,4-Dimethyl-2-thioxo-1,4-dihydro-2H-3,1-benzoxazin-6-yl)-2-fluorobenzenesulfonamide] the figure was 1600 nM.
Still for that read-out and setting: with `CC1=CC(C)(C)Nc2ccc(NS(=O)(=O)c3ccccc3F)cc21` [Example 67, 2-Fluoro-N-(2,2,4-trimethyl-1,2-dihydroquinolin-6-yl)benzenesulfonamide] the figure was 600 nM; with `CC1=CC(C)(C)Nc2ccc(NS(=O)(=O)c3cccnc3)cc21` [Example 73, N-(2,2,4-Trimethyl-1,2-dihydroquinolin-6-yl)pyridine-3-sulfonamide], 210 nM; with `Cc1ccc(S(=O)(=O)Oc2ccc(NS(C)(=O)=O)cc2F)cc1` [Example 110, 2-Fluoro-4-[(methylsulfonyl)amino]phenyl 4-methylbenzenesulfonate], 9400 nM.
Molecule `CC(=O)N(c1ccc2c(c1)C(C)=CC(C)(C)N2)S(=O)(=O)c1ccc(C)cc1` [Example 86, N-[(4-Methylphenyl)sulfonyl]-N-(2,2,4-trimethyl-1,2-dihydroquinolin-6-yl)acetamide] yielded a half-inhibitory concentration (IC50) of 270 nM.
Regarding `CC1=CC(C)(C)Nc2ccc(NS(=O)(=O)c3cccs3)cc21` [Example 62, N-(2,2,4-Trimethyl-1,2-dihydroquinolin-6-yl)thiophene-2-sulfonamide], the IC50 was 130 nM. Against the preceding molecule, the IC50 is about 2.1-fold lower.
On the same count and under the same terms, then `O=S(=O)(Nc1ccc2c(c1)C(c1ccccc1)OC(=S)N2)c1cccs1` (stereo not shown) [Example 44, N-(4-Phenyl-2-thioxo-1,4-dihydro-2H-3,1-benzoxazin-6-yl)thiophene-2-sulfonamide], with 860 nM.
`CC1CC(C)(C)Nc2ccc(NS(=O)(=O)c3ccc4ccccc4c3)cc21` (stereo not shown) [Example 99, N-(2,2,4-Trimethyl-1,2,3,4-tetrahydroquinolin-6-yl)naphthalene-2-sulfonamide] showed an IC50 of 3900 nM.
Same read-out and setting: with `CC1=CC(C)(C)Nc2ccc(NS(=O)(=O)c3ccc(C)cc3)cc21` [Example 60, 4-Methyl-N-(2,2,4-trimethyl-1,2-dihydroquinolin-6-yl)benzenesulfonamide] the figure was 300 nM; with `Cc1ccc(S(=O)(=O)Nc2ccc3c(c2)C(C)(C)OC(=S)N3)cc1` [Example 22, N-(4,4-Dimethyl-2-thioxo-1,4-dihydro-2H-3,1-benzoxazin-6-yl)-4-methylbenzenesulfonamide], 210 nM.
Consider `CC1=CC(C)(C)Nc2ccc(NS(=O)(=O)c3ccc4ccccc4c3)cc21` [Example 61, N-(2,2,4-Trimethyl-1,2-dihydroquinolin-6-yl)naphthalene-2-sulfonamide], for which the IC50 was 520 nM.
The molecule `C=CC1OC(=S)Nc2ccc(NS(=O)(=O)c3cccs3)cc21` (stereo not shown) [Example 46, N-(2-Thioxo-4-vinyl-1,4-dihydro-2H-3,1-benzoxazin-6-yl)thiophene-2-sulfonamide] displayed an IC50 of 2900 nM.
`Cc1ccc(S(=O)(=O)Cc2ccc3c(c2)CCC(C(F)(F)F)N3)cc1` (stereo not shown) [Example 104, 6-{[(4-Methylphenyl)sulfonyl]methyl}-2-(trifluoromethyl)-1,2,3,4-tetrahydroquinoline] had an IC50 of 1800 nM. Against the preceding molecule, the IC50 is about 1.6-fold lower.
Still for that read-out and setting: then `CC1=CC(C)(C)Nc2ccc(NS(=O)(=O)c3ccccc3C)cc21` [Example 78, 2-Methyl-N-(2,2,4-trimethyl-1,2-dihydroquinolin-6-yl)benzenesulfonamide], with 900 nM; and `CC1=CC(C)(C)Nc2ccc(OS(=O)(=O)c3ccc4ccccc4c3)cc21` [Example 52, 2,2,4-Trimethyl-1,2-dihydroquinolin-6-yl naphthalene-2-sulfonate], with 730 nM.
Molecule `CC1(C)OC(=S)Nc2ccc(NS(=O)(=O)c3ccc(C(F)(F)F)cc3)cc21` [Example 30, N-(4,4-Dimethyl-2-thioxo-1,4-dihydro-2H-3,1-benzoxazin-6-yl)-4-(trifluoromethyl)benzenesulfonamide] showed a half-maximal inhibitory concentration (IC50) of 160 nM.
For the molecule `CC1(C)OC(=O)Nc2ccc(NS(=O)(=O)c3cccs3)cc21` [Example 23, N-(4,4-Dimethyl-2-oxo-1,4-dihydro-2H-3,1-benzoxazin-6-yl)thiophene-2-sulfonamide], the IC50 is 2400 nM.
Still for that read-out and setting: with `Cc1ccc(S(=O)(=O)Cc2ccc3c(c2)C(C)(C)OC(=S)N3)cc1` [Example 16, 4,4-Dimethyl-6-{[(4-methylphenyl)sulfonyl]methyl}-1,4-dihydro-2H-3,1-benzoxazin-2-thione] the figure was 7 nM; with `Cc1ccc(S(=O)(=O)Nc2ccc3c(c2)C(C)CC(C)(C)N3)cc1` (stereo not shown) [Example 97, 4-Methyl-N-(2,2,4-trimethyl-1,2,3,4-tetrahydroquinolin-6-yl)benzenesulfonamide], 2200 nM; with `CC1=CC(C)(C)Nc2ccc(NS(=O)(=O)c3ccc(Cl)s3)cc21` [Example 66, 5-Chloro-N-(2,2,4-trimethyl-1,2-dihydroquinolin-6-yl)thiophene-2-sulfonamide], 1300 nM.
Still for that read-out and setting: with `CCCCS(=O)(=O)Nc1ccc(OS(=O)(=O)c2ccc(C)cc2)cc1` [Example 106, 4-[(Butylsulfonyl)amino]phenyl 4-methylbenzenesulfonate] the figure was 8000 nM.
Still for that read-out and setting: then `CC(=O)N(c1ccc2c(c1)C(C)=CC(C)(C)N2)S(=O)(=O)c1ccc(Cl)cc1` [Example 88, N-[(4-Chlorophenyl)sulfonyl]-N-(2,2,4-trimethyl-1,2-dihydroquinolin-6-yl) acetamide], with 300 nM.
As for `CC1=CC(C)(C)Nc2ccc(N(C)S(=O)(=O)c3cccs3)cc21` [Example 85, N-Methyl-N-(2,2,4-trimethyl-1,2-dihydroquinolin-6-yl)thiophene-2-sulfonamide], the IC50 turned out to be 150 nM.

In the next assay the test system is decrease of Na/K ratio in urine induced with aldosterone. Briefly: Antagonistic action (in vivo antagonist activity) against decrease of Na/K ratio in urine induced with aldosterone, adrenalectomized rat. The following applies: oral 10 and 30 mg/kg, 30 minutes before subcutaneous aldosterone, urine collection 4 hours (FIG. 1).
Protocol: After anesthetizing a rat by administering 50 mg/kg of sodium pentobarbital in its abdominal cavity and disinfecting its skin with the Isodine diluted solution, the rat was incised. After adrenalectomy and confirming the hemostasis, the muscular layer and skin were sutured in this order and then the sutured part was disinfected with the Isodine diluted solution. After breeding 3 days or more, a rat showing good progress was subjected to the following test.
It was fasted from the day preceding an examination, put into a metabolic cage at the day of the examination, and then subjected to a urine collection for 4 hours. When a substance to be tested was administered orally, it was administered in an amount of 5 ml/kg with 0.5% methylcellulose as a solvent. The aldosterone was dissolved with 1% ethanol/physiological saline and administered subcutaneously. The substance to be tested was administered 30 minutes before administering aldosterone. In order to stabilize and sufficiently secure the amount of the urine, physiological saline was administered orally in an amount of 20 ml/kg at the time of administering aldosterone. The colleted urine, after measuring its volume, was subjected to a measurement of electrolyte (sodium: Na and potassium: K) concentration in the urine with a biochemistry autoanalyzer (manufactured by Beckman, Synchron CX3 system Delta).
Consider `CC1(C)OC(=S)Nc2ccc(NS(=O)(=O)c3cccs3)cc21` [Example 24, N-(4,4-Dimethyl-2-thioxo-1,4-dihydro-2H-3,1-benzoxazin-6-yl)thiophene-2-sulfonamide], for which the “inhibition of the decrease of the urine Na/K ratio induced with aldosterone” value is on record as “dose-dependently inhibited the decrease of the urine Na/K ratio”.

The values above are taken from US20100160304A1, “AROMATIC SULFONE COMPOUND AS ALDOSTERONE RECEPTOR MODULATOR” (Dainippon Sumitomo Pharma Co., Ltd, priority 2005, published 2010).
